In patent US20200352905A1, “6-(2,4-DICHLOROPHENYL)-5-[4-[(3S)-1-(3-FLUOROPROPYL)PYRROLIDIN-3-YL]OXYPHENYL]-8,9-DIHYDRO-7H-BENZO[7]ANNULENE-2-CARBOXYLIC ACID FOR USE IN METASTATIC OR ADVANCED BREAST CANCER PATIENTS” (SANOFI, priority 2019, published 2020):
Values joined by “and” are separate entries in the source; they are usually repeats but may differ in a detail not shown here. Equal entries are not always repeated. Where two headings read alike, the source gives them in different places.

Columns and labels:
[1] = TED14856 Part A: plasma pharmacokinetics of compound (1); type: in vivo, human; details: for Tmax / Vd/F / AUC(0-t) / Cmax: human, plasma, oral, 600 mg; for Tmax: read-out: tmax (median)
[2] = test system: ER-positive and HER2-negative advanced breast cancer; assay: TED14856 Part A: antitumor activity per RECIST v1.1 (BOR, ORR, CBR)
Text: The signal extinction between baseline and on study treatment ^18FES-PET scans constitute the PD readout of the ER engagement.
Patients with an early progression as per RECIST v1.1 or who died from disease progression are evaluable for response.
Preliminary efficacy is descriptively presented on activity/efficacy population.

[3] = repeated 600 mg once daily, Cycle1 Day 22, fasted, N=3
[4] = repeated 20 mg once daily, Cycle1 Day 22, fasted, N=3
[5] = repeated 150 mg once daily, Cycle1 Day 22, fasted, N=2
[6] = repeated 200 mg once daily, Cycle1 Day 22, fasted, N=3
[7] = repeated 400 mg once daily, Cycle1 Day 22, fasted, N=3
[8] = single 20 mg, Cycle1 Day 1, fasted, N = 1
[9] = single 150 mg, Cycle1 Day 1, fasted, N = 1
[10] = single 200 mg, Cycle1 Day 1, fasted, N=4
[11] = single 400 mg, Cycle1 Day 1, fasted, N=3
[12] = single 600 mg, Cycle1 Day 1, fasted, N = 2

With `O=C(O)c1ccc2c(c1)CCCC(c1ccc(Cl)cc1Cl)=C2c1ccc(O[C@H]2CCN(CCCF)C2)cc1` [compound (1), 6-(2,4-dichlorophenyl)-5-[4-[(3S)-1-(3-fluoropropyl)pyrrolidin-3-yl]oxyphenyl]-8,9-dihydro-7H-benzo[7]annulene-2-carboxylic acid] the Tmax [1, 3] was 3 h, the Vd/F ([1]; single 600 mg, Cycle1 Day 1, fasted, N = 2, read-out: Vss/F (Geometric Mean)) was 132 L and the Vd/F ([1]; single 600 mg, Cycle1 Day 1, fasted, N = 2, read-out: Vss/F (Mean ± SD)) was 137 L. The AUC(0-t) ([1]; single 600 mg, Cycle1 Day 1, fasted, N=3, read-out: AUC0-24 (Geometric Mean)) was 53400 ng·h/mL, the AUC(0-t) ([1]; single 600 mg, Cycle1 Day 1, fasted, N=3, read-out: AUC0-24 (Mean ± SD)) was 61100 ± 36300 ng·h/mL and the Cmax ([1]; single 600 mg, Cycle1 Day 1, fasted, N=3, read-out: Cmax (Geometric Mean)) was 6160 ng/mL. For the same compound, the Cmax ([1]; single 600 mg, Cycle1 Day 1, fasted, N=3, read-out: Cmax (Mean ± SD)) was 7010 ± 4180 ng/mL, the Tmax ([1]; single 600 mg, Cycle1 Day 1, fasted, N=3) was 3.03 h and the “accumulation on Day 21/22” value ([1]; once-daily administrations up to 200 mg) was “moderate accumulation”. For the same compound, the “accumulation on Day 21/22” value ([1]; once-daily, doses higher than 200 mg) was “no accumulation”, the “CLss/F (Mean ± SD)” value [1, 4] was 18.0 ± 13.7 L/h and the “Ctrough (Mean ± SD)” value [1, 4] was 8.10 ± 7.16 ng/mL. The “CLss/F (Mean ± SD)” value [1, 5] was 10.6 NC L/hr, the “Ctrough (Geometric Mean)” value [1, 5] was “(115) [NC] ng/mL” and the “Ctrough (Mean ± SD)” value [1, 5] was 126 NC ng/mL. The “CLss/F (Mean ± SD)” value [1, 6] was 15.3 ± 4.30 L/h, the “Ctrough (Geometric Mean)” value [1, 6] was “(59.2) [73.6] ng/mL” and the “Ctrough (Mean ± SD)” value [1, 6] was 76.1 ± 56.0 ng/mL. The “CLss/F (Mean ± SD)” value [1, 7] was 18.1 ± 17.4 L/h, the “Ctrough (Geometric Mean)” value [1, 7] was “(253) [84.2] ng/mL” and the “Ctrough (Mean ± SD)” value [1, 7] was 388 ng/mL and 388 ± 327 ng/mL. For the same compound, the “CLss/F (Mean ± SD)” value [1, 3] was 14.7 ± 3.96 L/h, the “Ctrough (Geometric Mean)” value [1, 3] was “(314) [56.8] ng/mL” and the “Ctrough (Mean ± SD)” value [1, 3] was 348 ± 197 ng/mL. For the same compound, the “CL/F (Mean ± SD)” value [1, 8] was 12.2 NC L/hr, the “t1/2z (Geometric Mean)” value [1, 8] was “(4.86) [NC]^b hr” and the “t1/2z (Mean ± SD)” value [1, 8] was 4.86 NC hr. For the same compound, the “CL/F (Mean ± SD)” value [1, 9] was 7.26 NC L/hr, the “t1/2z (Geometric Mean)” value [1, 9] was “(6.42) [NC]^b hr” and the “t1/2z (Mean ± SD)” value [1, 9] was 6.42 NC hr. For the same compound, the “CL/F (Mean ± SD)” value [1, 10] was 24.2 ± 17.0 L/h, the “t1/2z (Geometric Mean)” value [1, 10] was “(7.31) [19.5] hr” and the “t1/2z (Mean ± SD)” value [1, 10] was 7.41 ± 1.45 h. The “CL/F (Mean ± SD)” value [1, 11] was 9.86 ± 5.77 L/h, the “t1/2z (Mean ± SD)” value [1, 11] was 10.6 ± 2.33 h and the “CL/F (Mean ± SD)” value [1, 12] was 15.2 NC L/hr. For the same compound, the “t1/2z (Geometric Mean)” value [1, 12] was “(8.97) [NC]^c hr”, the “t1/2z (Mean ± SD)” value [1, 12] was 9.45 NC hr and the “accumulation after repeated oral administration” value ([1]; up to 600 mg) was “limited accumulation”. For the same compound, the “dose proportionality of exposure (Cmax, AUC0-24h)” value ([1]; up to 600 mg, single or multiple once daily administrations) was “did not deviate significantly from dose proportionality”, the “Clinical Benefit Rate” value ([2]; 20 mg, N=3) was 0 n and the “Complete Response (CR)” value ([2]; 20 mg, N=3) was 0 n. For the same compound, the “Objective Response Rate” value ([2]; 20 mg, N=3) was 0 n, the “Partial Response (PR)” value ([2]; 20 mg, N=3) was 0 n and the “Complete Response (CR)” value ([2]; 150 mg, N=3) was 0 n. For the same compound, the “Complete Response (CR)” value ([2]; 200 mg, N=4) was 0 n, the “Objective Response Rate” value ([2]; 200 mg, N=4) was 0 n and the “Partial Response (PR)” value ([2]; 200 mg, N=4) was 0 n. The “Complete Response (CR)” value ([2]; 400 mg, N=3) was 0 n, the “Objective Response Rate” value ([2]; 400 mg, N=3) was 0 n and the “Partial Response (PR)” value ([2]; 400 mg, N=3) was 0 n. For the same compound, the “Complete Response (CR)” value ([2]; 600 mg, N=3) was 0 n, the “Objective Response Rate” value ([2]; 600 mg, N=3) was 0 n and the “Partial Response (PR)” value ([2]; 600 mg, N=3) was 0 n. The “Complete Response (CR)” value ([2]; All, N=16) was 0 n, the “patients with tumor shrinkage greater than 10%” value ([2]; N=16) was 9 patients and the “Clinical Benefit Rate (CBR)” value ([2]; patients with ESR1 mutations (5/11)) was 45.5%. For the same compound, the “Clinical Benefit Rate (CBR)” value ([2]; patients with wild-type ESR1 (3/5)) was 60.0%.
